US20230024302A1, “2,3,5-TRISUBSTITUTED PYRAZOLO[1,5-A]PYRIMIDINE COMPOUNDS” (Arcus Biosciences, Inc., priority 2019, published 2023)

Columns and labels:
PI3Kγ = molecular target: T1, PI3Kγ (Homo sapiens, UniProt P48736); assay: PI3Kγ cellular assay in THP-1 cells (AKT pS473 AlphaLISA); format: cell-based; conditions: Table 2, rhMCP-1 stimulated AKT pS473, read-out: cellular potency (PI3Kγ IC50)
T1 construct: host or cells: THP-1
Outline: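 Serum-starved THP-1 cells (1.8×10^5/well, serum-free DMEM) treated with compounds from 4 nM to 30 μM in 2% DMSO, then stimulated and lysed.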

PI3Kγ (p120γ) = molecular target: T2, PI3Kγ (p120γ) (Homo sapiens, UniProt P48736); assay: Inhibition of PI3K kinase activity (ADP Glo), PI3Kγ; conditions: Table 2, p120γ, read-out: biochemical potency (PI3Kγ IC50)
T2 construct: purchased Promega V1761
Outline: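 Recombinant p120γ (8 nM, 2× stock) was preincubated with compound for 1 h at rt in HEPES pH 7.4, NaCl, MgCl2 and 0.05% BSA. Reaction was started with PIP2 (0.1 mg/ml, 2×) and ATP (50 μM, 2×) and ran 60 min at rt. ADP formed was read by ADP-Glo luminescence, and IC50 came from a 4-parameter fit.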

T2 sequence (P48736 whole entry): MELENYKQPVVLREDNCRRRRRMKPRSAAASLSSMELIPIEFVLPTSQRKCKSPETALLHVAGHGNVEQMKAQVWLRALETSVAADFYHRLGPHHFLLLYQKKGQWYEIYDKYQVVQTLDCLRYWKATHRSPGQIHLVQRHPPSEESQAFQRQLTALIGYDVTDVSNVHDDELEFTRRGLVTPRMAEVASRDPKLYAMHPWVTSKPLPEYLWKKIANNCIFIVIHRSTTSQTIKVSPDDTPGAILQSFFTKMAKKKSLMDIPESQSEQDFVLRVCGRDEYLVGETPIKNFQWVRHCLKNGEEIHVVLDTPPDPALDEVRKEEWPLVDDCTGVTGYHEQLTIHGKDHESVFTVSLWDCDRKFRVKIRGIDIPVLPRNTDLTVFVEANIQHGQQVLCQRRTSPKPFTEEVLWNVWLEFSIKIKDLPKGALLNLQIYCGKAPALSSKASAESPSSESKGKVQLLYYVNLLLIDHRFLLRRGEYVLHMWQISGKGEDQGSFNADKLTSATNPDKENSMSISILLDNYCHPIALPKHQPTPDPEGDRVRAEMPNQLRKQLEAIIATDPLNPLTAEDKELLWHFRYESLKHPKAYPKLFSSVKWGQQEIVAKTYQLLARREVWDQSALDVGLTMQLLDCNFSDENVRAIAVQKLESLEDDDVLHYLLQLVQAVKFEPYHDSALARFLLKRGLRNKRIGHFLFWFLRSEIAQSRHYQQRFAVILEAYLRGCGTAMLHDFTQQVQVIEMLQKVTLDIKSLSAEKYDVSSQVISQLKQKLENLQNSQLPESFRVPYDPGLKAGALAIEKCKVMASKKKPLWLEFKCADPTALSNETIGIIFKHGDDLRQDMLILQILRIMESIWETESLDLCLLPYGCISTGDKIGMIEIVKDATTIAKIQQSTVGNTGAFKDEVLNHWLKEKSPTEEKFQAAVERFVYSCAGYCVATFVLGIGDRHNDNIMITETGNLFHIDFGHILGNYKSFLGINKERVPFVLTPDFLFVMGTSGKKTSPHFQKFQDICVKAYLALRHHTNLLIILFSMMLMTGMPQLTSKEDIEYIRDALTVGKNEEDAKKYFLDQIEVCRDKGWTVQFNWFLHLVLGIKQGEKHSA
T1 sequence (P48736 whole entry): as above

For `Cc1cc(-c2ccn3nc(N)c(C(=O)NC4(C(F)(F)F)CC4)c3n2)cc2c1C(=O)N([C@@H](C)C1CC1)C2` [Example 262], the IC50 (PI3Kγ) was 100 to 1000 nM and the IC50 (PI3Kγ (p120γ)) was less than 100 nM.
`Cc1cc(-c2ccn3nc(N)c(C(=O)N[C@@H]4C[C@@H]4F)c3n2)cc2c1C(=O)N([C@@H](C)C1CC1)C2` [Example 263] gave an IC50 (PI3Kγ) of 100 to 1000 nM and an IC50 (PI3Kγ (p120γ)) of less than 100 nM.
Compound `Cc1cc(-c2ccn3nc(N)c(C(=O)N[C@H]4CCC[C@H]4O)c3n2)cc2c1C(=O)N([C@@H](C)C1CC1)C2` [Example 264] has an IC50 (PI3Kγ) of 100 to 1000 nM and an IC50 (PI3Kγ (p120γ)) of less than 100 nM.
`Cc1cc(-c2ccn3nc(N)c(C(=O)N[C@H]4Cc5ccccc5[C@@H]4O)c3n2)cc2c1C(=O)N([C@@H](C)C1CC1)C2` [Example 265] gave an IC50 (PI3Kγ) greater than 1000 nM and an IC50 (PI3Kγ (p120γ)) of less than 100 nM.
Work on `Cc1cc(-c2ccn3nc(N)c(C(=O)NC4CNC4)c3n2)cc2c1C(=O)N([C@@H](C)C1CC1)C2` [Example 266] yielded an IC50 (PI3Kγ) greater than 1000 nM and an IC50 (PI3Kγ (p120γ)) of less than 100 nM.
For `Cc1cc(-c2ccn3nc(N)c(C(=O)N[C@@H](CO)CC(C)C)c3n2)cc2c1C(=O)N([C@@H](C)C1CC1)C2` [Example 267], the IC50 (PI3Kγ) was 100 to 1000 nM and the IC50 (PI3Kγ (p120γ)) was less than 100 nM.
Work on `Cc1cc(-c2ccn3nc(N)c(C(=O)NC4(C#N)CC4)c3n2)cc2c1C(=O)N([C@@H](C)C1CC1)C2` [Example 268] yielded an IC50 (PI3Kγ) of 100 to 1000 nM and an IC50 (PI3Kγ (p120γ)) of less than 100 nM.
`Cc1cc(-c2ccn3nc(N)c(C(=O)NC[C@H]4CCCO4)c3n2)cc2c1C(=O)N([C@@H](C)C1CC1)C2` [Example 269] was tested, and the IC50 (PI3Kγ) was 100 to 1000 nM and the IC50 (PI3Kγ (p120γ)) was less than 100 nM.
`Cc1cc(-c2ccn3nc(N)c(C(=O)N4CC(C(C)(C)O)C4)c3n2)cc2c1C(=O)N(C(C)C1CC1)C2` (stereo not drawn) [Example 270] showed an IC50 (PI3Kγ) of 100 to 1000 nM and an IC50 (PI3Kγ (p120γ)) of less than 100 nM.
With `Cc1cc(-c2ccn3nc(N)c(C(=O)NC[C@@H]4CCC(=O)N4)c3n2)cc2c1C(=O)N([C@@H](C)C1CC1)C2` [Example 271] the IC50 (PI3Kγ) was 100 to 1000 nM and the IC50 (PI3Kγ (p120γ)) was less than 100 nM.
`Cc1cc(-c2ccn3nc(N)c(C(=O)N[C@H]4c5ccccc5C[C@@H]4O)c3n2)cc2c1C(=O)N([C@@H](C)C1CC1)C2` [Example 272] showed an IC50 (PI3Kγ) greater than 1000 nM and an IC50 (PI3Kγ (p120γ)) of less than 100 nM.
`Cc1cc(-c2ccn3nc(N)c(C(=O)N[C@H]4CC[C@@H](N)CC4)c3n2)cc2c1C(=O)N([C@@H](C)C1CC1)C2` [Example 273] was tested, and the IC50 (PI3Kγ) was 100 to 1000 nM and the IC50 (PI3Kγ (p120γ)) was less than 100 nM.
With `Cc1cc(-c2ccn3nc(N)c(C(=O)N4CCC4CO)c3n2)cc2c1C(=O)N(C(C)C1CC1)C2` (stereo not drawn) [Example 274] the IC50 (PI3Kγ) was 100 to 1000 nM and the IC50 (PI3Kγ (p120γ)) was less than 100 nM.
Compound `Cc1cc(-c2ccn3nc(N)c(C(=O)N[C@H]4CCCC[C@H]4O)c3n2)cc2c1C(=O)N([C@@H](C)C1CC1)C2` [Example 275] has an IC50 (PI3Kγ) of 100 to 1000 nM and an IC50 (PI3Kγ (p120γ)) of less than 100 nM.
`Cc1cc(-c2ccn3nc(N)c(C(=O)NC[C@H]4CNC(=O)C4)c3n2)cc2c1C(=O)N([C@@H](C)C1CC1)C2` [Example 276] was tested, and the IC50 (PI3Kγ) was 100 to 1000 nM and the IC50 (PI3Kγ (p120γ)) was less than 100 nM.
For `Cc1cc(-c2ccn3nc(N)c(C(=O)NC4CC45CC5)c3n2)cc2c1C(=O)N([C@@H](C)C1CC1)C2` (stereo partly drawn) [Example 277], the IC50 (PI3Kγ) was 100 to 1000 nM and the IC50 (PI3Kγ (p120γ)) was less than 100 nM.
For `Cc1cc(-c2ccn3nc(N)c(C(=O)N[C@H](C)C4CC4)c3n2)cc2c1C(=O)N([C@@H](C)C1CC1)C2` [Example 278], the IC50 (PI3Kγ) was greater than 1000 nM and the IC50 (PI3Kγ (p120γ)) was less than 100 nM.
Compound `Cc1cc(-c2ccn3nc(N)c(C(=O)NCC(=O)Nc4ccccc4)c3n2)cc2c1C(=O)N([C@@H](C)C1CC1)C2` [Example 279] has an IC50 (PI3Kγ) greater than 1000 nM and an IC50 (PI3Kγ (p120γ)) of less than 100 nM.
`Cc1cc(-c2ccn3nc(N)c(C(=O)N4CCOCC4)c3n2)cc2c1C(=O)N(C(C)C1CC1)C2` (stereo not drawn) [Example 280] showed an IC50 (PI3Kγ) greater than 1000 nM and an IC50 (PI3Kγ (p120γ)) of less than 100 nM.
`Cc1cc(-c2ccn3nc(N)c(C(=O)NC4(c5ccccc5)CC4)c3n2)cc2c1C(=O)N([C@@H](C)C1CC1)C2` [Example 281] gave an IC50 (PI3Kγ) greater than 1000 nM and an IC50 (PI3Kγ (p120γ)) of less than 100 nM.
`Cc1cc(-c2ccn3nc(N)c(C(=O)N[C@@H]4CCNC4=O)c3n2)cc2c1C(=O)N([C@@H](C)C1CC1)C2` [Example 283] was tested, and the IC50 (PI3Kγ) was 100 to 1000 nM and the IC50 (PI3Kγ (p120γ)) was less than 100 nM.
With `Cc1cc(-c2ccn3nc(N)c(C(=O)N[C@H]4c5ccccc5C[C@H]4O)c3n2)cc2c1C(=O)N([C@@H](C)C1CC1)C2` [Example 284] the IC50 (PI3Kγ) was greater than 1000 nM and the IC50 (PI3Kγ (p120γ)) was less than 100 nM.
`Cc1cc(-c2ccn3nc(N)c(C(=O)N[C@@H]4CCOc5ccccc54)c3n2)cc2c1C(=O)N([C@@H](C)C1CC1)C2` [Example 285] showed an IC50 (PI3Kγ) greater than 1000 nM and an IC50 (PI3Kγ (p120γ)) of less than 100 nM.
For `Cc1cc(-c2ccn3nc(N)c(C(=O)N[C@H](C(N)=O)c4ccccc4)c3n2)cc2c1C(=O)N([C@@H](C)C1CC1)C2` [Example 286], the IC50 (PI3Kγ) was greater than 1000 nM and the IC50 (PI3Kγ (p120γ)) was 100 to 1000 nM.
Work on `Cc1cc(-c2ccn3nc(N)c(C(=O)NC(C)C4COC4)c3n2)cc2c1C(=O)N([C@@H](C)C1CC1)C2` (stereo partly drawn) [Example 287] yielded an IC50 (PI3Kγ) of 100 to 1000 nM and an IC50 (PI3Kγ (p120γ)) of 100 to 1000 nM.
`Cc1cc(-c2ccn3nc(N)c(C(=O)N4CCCC4CO)c3n2)cc2c1C(=O)N(C(C)C1CC1)C2` (stereo not drawn) [Example 288] was tested, and the IC50 (PI3Kγ) was greater than 1000 nM and the IC50 (PI3Kγ (p120γ)) was 100 to 1000 nM.
In the case of `Cc1cc(-c2ccn3nc(N)c(C(=O)N4CCCC4CO)c3n2)cc2c1C(=O)N(C(C)C1CC1)C2` (stereo not drawn) [Example 289], the IC50 (PI3Kγ) is reported as greater than 1000 nM and the IC50 (PI3Kγ (p120γ)) is reported as 100 to 1000 nM.
